# Entries after “also recorded” stand apart in the source; their conditions may differ. Like-named read-outs stand apart in the source and are kept apart here.
# How the values were obtained:
# Jurkat cells [1] = experiment: G2 checkpoint abrogation in bleomycin-treated Jurkat cells (flow cytometry of DNA content); type: cell-based, human; conditions: for abrogation of bleomycin-induced accumulation of G2/M cells (% G2/M): bleomycin 40 μg/ml plus compound 0.2-50 μg/ml
# Experimental: (§1) Cell culture. A human T-cell leukemia-derived cell line, Jurkat, was cultured in RPMI 1640 media (Sigma) supplemented with 10% fetal calf serum (IBL: Immuno-Biological Laboratories, Gunma, Japan) at 37° C./5% CO2. A human colon cancer-derived cell line, HCT116, was cultured in McCoy's 5A Medium Modified (Gibco BRL) and supplemented with 10% fetal calf serum at 37° C./5% CO2. Normal human peripheral blood lymphocytes were separated by Ficoll-Paque® (Pharmacia) and cultured in the presence of 0.1 μg/ml PHA and 1 μg/ml IL-2.
# (§2) Cell-cycle analysis. […] Briefly, two million cells were resuspended and incubated in 300 μl Krishan's solution (0.1% Sodium citrate, 50 μg/ml PI, 20 μg/ml RNase A and 0.5% NP-40) for 1 hr at 4° C. and analyzed by flow cytometry using a FACScan™ flow cytometer (Beckton Dickinson, Mountain View, Calif.) with the CELLQuest™ program (Beckton Dickinson).
# DNA of treated Jurkat cells was stained with propidium iodine, and the cell cycle status of each cell was assessed by flow cytometry.
# CBDC compounds 004, 402, 403, 404, 405, 406, 407, 408, 409, 410, and 411 were tested. Cells were harvested, DNA was stained with propidium iodine, and the percentage of cells in G2/M phase (% G2/M) was determined by flow cytometry.
# Activated normal T cells and leukemic T cells (Jurkat cells) were treated with agents to induce accumulation of cells at G2 or M phase, and the effect of CBDC402 on progression of cells through cell cycle checkpoints was measured. After treatments, cells were harvested, DNA was stained, and the cell cycle stage for each cell was determined by flow cytometry as described above. […] In another experiment, activated normal T cells received no treatment (control) or were treated with colchicine or a combination of […] and colchicine.
# [2] = system: HCT116 human colon carcinoma cells; experiment: G2 checkpoint induced by various anti-cancer agents in HCT116 cells (flow cytometry); type: cell-based; conditions: co-incubation with CBDC004 2, 10 or 50 μM, 24 hrs
# Experimental: as §1, §2
# DNA was stained with propidium iodine, and the cell cycle status of each cell was assessed by flow cytometry.
# [3] = system: HCT-116 human colon carcinoma cells; experiment: Xenograft tumor growth in SCID mice; type: in vivo; conditions: HCT-116 xenograft, intraperitoneal
# Experimental: Treatment was initiated when the primary tumors reached the size of 0.1 cm^3 (7 or 8 mm, designated as Day 1).
# Anti-cancer agent CPT-11 (CAMPTOSAR®, Irinotecan, a topoisomerase inhibitor) and CBDC402 were administered by intraperitoneal injection in the following treatment regimens: […] at 20 mg/kg once a week; CBDC402 at 20 mg/kg twice a week; CBDC402 at 40 mg/kg twice a week; CBDC402 at 20 mg/kg twice and week plus CPT-11 at 20 mg/kg once a week; and CBDC402 at 40 mg/kg twice a week plus CPT-11 at 20 mg/kg once a week. DMSO was administered as a control treatment. Tumor sizes were measured using calipers three times a week, and the volume was calculated using the formula; […]=[width (mm)^2×length (mm)]/2. Mean tumor sizes for each treatment group (n=4) were plotted against the days of treatment.
# Activated normal T cells [4] = experiment: M phase checkpoint in colchicine-treated activated normal T cells (flow cytometry); type: cell-based, human; conditions: FIG. 10c
# Experimental: as §1, §2
# (§3) Activated normal T cells and leukemic T cells (Jurkat cells) were treated with agents to induce accumulation of cells at G2 or M phase, and the effect of CBDC402 on progression of cells through cell cycle checkpoints was measured. After treatments, cells were harvested, DNA was stained, and the cell cycle stage for each cell was determined by flow cytometry as described above. […]
# Jurkat cells [5] = experiment: M phase checkpoint in colchicine-treated Jurkat cells (flow cytometry); type: cell-based, human; conditions: 24 hrs
# Experimental: as §1, §2
# Jurkat cells were treated with colchicine (5 ug/ml), and colchicine plus the compound CBDC402 in various concentrations (0.2, 0.39, 0.78, 1.56, 3.125, 6.25, 12.5, 25 and 50 ug/ml) for 24 hrs. DNA of treated Jurkat cells was stained with propidium iodine, and the cell cycle status of each cell was assessed by flow cytometry.
# Activated normal T cells [6] = experiment: G2 checkpoint in bleomycin-treated activated normal T cells (flow cytometry); type: cell-based, human
# Experimental: as §1, §2, §3
# MK-45 cells = experiment: Colony formation analysis of MK-45 cells; type: cell-based, human; conditions: 14 days culture; for colony formation, combination with CPT-11: 10 μM CBDC compound plus 10 μg/ml CPT-11, 3 hours; for colony formation, CBDC compound alone: 10 μM, 3-hour treatment
# Experimental: MK-45 cells from a human gastric cancer derived cell line, were seeded in 6-well plates at 1000 cells/well. After the overnight culture, the cells were treated 10 μM of various CBDC compounds, 10 μg/ml CPT-11, or a combination of CBDC compounds and CPT-11 for three (3) hours. The CBDC compounds tested were: CBDC402, CBDC412, CBDC413, and CBDC418. The culture medium was changed and cells were cultured for 14 days, after which the colonies were fixed with methanol and stained with 0.1% crystal violet.
# HCT116 cells = system: HCT116 cells
# Experimental: The subG1 population was determined by staining HCT116 with Krishan's solution and analyzed by flow cytometer. The dead cells were identified on the basis of DNA content, and the percentage of cells in sub G1 (% subG1) was calculated.
compound,measurement,setting,value
"COc1ccc(OC(=O)c2ccc(Cl)cc2)cc1 [CBDC004, 4-Chloro-benzoic acid 4-methoxy-phenyl ester]",abrogation of bleomycin-induced accumulation of G2/M cells (% G2/M),"Jurkat cells [1]; Jurkat cells, 24 hrs",abrogated the G2 cell cycle checkpoint in bleomycin-treated Jurkat cells in a dose-dependent manner
same,"effect on G2/M accumulation induced by bleomycin, adriamycin, camptothecin or cisplatin",[2],reduced the number of cells at G2/M
"Cc1ccc(OC(=O)c2ccc(Br)cc2)cc1 [CBDC402, 4-Bromo-benzoic acid p-tolyl ester]","tumor growth, CBDC402 alone",[3]; 20 or 40 mg/kg twice a week (both concentrations),gave a slight reduction in tumor growth
same,"tumor growth, combination with CPT-11",[3]; CBDC402 20 or 40 mg/kg twice a week plus CPT-11 20 mg/kg once a week,significantly reduced or inhibited tumor growth
same,effect on colchicine-induced increase of cells at M phase,Activated normal T cells [4]; combination with colchicine,did not affect the colchicine-induced increase of activated normal T cells at M phase
same,abrogation of colchicine-induced G2/M accumulation,Jurkat cells [5]; colchicine 5 ug/ml plus compound 0.2-50 ug/ml,did not abrogate this G2/M accumulation at any CBDC402 concentration
same,abrogation of bleomycin-induced accumulation of G2/M cells (% G2/M),"Jurkat cells [1]; Jurkat cells, 24 hrs",abolished the bleomycin-induced accumulation of G2/M cells in a dose-dependent manner; also recorded: abrogated the G2 cell cycle checkpoint in bleomycin-treated Jurkat cells in a dose-dependent manner
same,relative G2 checkpoint abrogating activity among CBDC compounds tested (dose-response curve),"Jurkat cells [1]; Jurkat cells, bleomycin 40 ug/ml, 24 hrs, FIG. 3",showed the highest activity
same,effect on bleomycin-induced increase of cells at G2 phase,"Jurkat cells [1]; leukemic T cells (Jurkat cells), combination of bleomycin and CBDC402, FIG. 10b",abolished the large bleomycin-induced increase of leukemic T cells (Jurkat cells) at G2 phase
same,effect on bleomycin-induced increase of cells at G2 phase,"Activated normal T cells [6]; combination of bleomycin and CBDC402, FIG. 10a",abolished the bleomycin-induced increase of activated normal T cells at G2 phase
same,"colony formation, combination with CPT-11",MK-45 cells,almost complete suppression of colony formation
same,"colony formation, CBDC compound alone",MK-45 cells,significant suppression of colony formation
"Cc1ccc(OC(=O)c2cc(F)c(F)c(F)c2)cc1 [CBDC403, 3,4,5-Trifluoro-benzoic acid p-toly 1 ester]",abrogation of bleomycin-induced accumulation of G2/M cells (% G2/M),"Jurkat cells [1]; Jurkat cells, 24 hrs",abrogated the G2 cell cycle checkpoint in bleomycin-treated Jurkat cells in a dose-dependent manner
"CC.O=C(Oc1ccc(Br)cc1)c1ccc(F)cc1 [CBDC404, 4-Fluoro-benzoic acid 4-bromo-pheny 1 ester; compound with ethane]",abrogation of bleomycin-induced accumulation of G2/M cells (% G2/M),"Jurkat cells [1]; Jurkat cells, 24 hrs",abrogated the G2 cell cycle checkpoint in bleomycin-treated Jurkat cells in a dose-dependent manner
"CC.Cc1ccc(OC(=O)c2ccc(Cl)c(Cl)c2)cc1 [CBDC405, 3,4-Dichloro-benzoic acid p-tolyl ester; compound with ethane]",abrogation of bleomycin-induced accumulation of G2/M cells (% G2/M),"Jurkat cells [1]; Jurkat cells, 24 hrs",abrogated the G2 cell cycle checkpoint in bleomycin-treated Jurkat cells in a dose-dependent manner
"CC.Cc1ccc(OC(=O)c2ccc(Cl)cc2Cl)cc1 [CBDC406, 2,4-Dichloro-benzoic acid p-tolyl ester; compound with ethane]",abrogation of bleomycin-induced accumulation of G2/M cells (% G2/M),"Jurkat cells [1]; Jurkat cells, 24 hrs",abrogated the G2 cell cycle checkpoint in bleomycin-treated Jurkat cells in a dose-dependent manner
"CC.Cc1ccc(OC(=O)c2ccc(F)cc2)cc1 [CBDC407, 4-Fluoro-benzoic acid p-tolyl ester; compound with ethane]",abrogation of bleomycin-induced accumulation of G2/M cells (% G2/M),"Jurkat cells [1]; Jurkat cells, 24 hrs",abrogated the G2 cell cycle checkpoint in bleomycin-treated Jurkat cells in a dose-dependent manner
"CC.Cc1ccc(OC(=O)c2c(F)c(F)c(F)c(F)c2F)cc1 [CBDC408, 2,3,4,5,6-Pentafluoro-benzoic acid p-tolyl ester; compound with ethane]",abrogation of bleomycin-induced accumulation of G2/M cells (% G2/M),"Jurkat cells [1]; Jurkat cells, 24 hrs",abrogated the G2 cell cycle checkpoint in bleomycin-treated Jurkat cells in a dose-dependent manner
"CC.Cc1ccc(OC(=O)c2ccc(Cl)cc2)cc1C [CBDC409, 4-Chloro-benzoic acid 3,4-dimethyl-phenyl ester; compound with ethane]",abrogation of bleomycin-induced accumulation of G2/M cells (% G2/M),"Jurkat cells [1]; Jurkat cells, 24 hrs",abrogated the G2 cell cycle checkpoint in bleomycin-treated Jurkat cells in a dose-dependent manner
"CC.O=C(Oc1ccc(O)cc1)c1ccc(Cl)cc1 [CBDC410, 4-Chloro-benzoic acid 4-hydroxy-phenyl ester; compound with ethane]",abrogation of bleomycin-induced accumulation of G2/M cells (% G2/M),"Jurkat cells [1]; Jurkat cells, 24 hrs",abrogated the G2 cell cycle checkpoint in bleomycin-treated Jurkat cells in a dose-dependent manner
"CC.O=C(Oc1ccc(O)cc1)c1ccc(F)cc1 [CBDC411, 4-Fluoro-benzoic acid 4-hydroxy-phenyl ester; compound with ethane]",abrogation of bleomycin-induced accumulation of G2/M cells (% G2/M),"Jurkat cells [1]; Jurkat cells, 24 hrs",abrogated the G2 cell cycle checkpoint in bleomycin-treated Jurkat cells in a dose-dependent manner
"O=C(Oc1ccc(F)cc1)c1ccc(Br)cc1 [CBDC412, 4-Bromo-benzoic acid 4-fluoro-phenyl ester]","colony formation, combination with CPT-11",MK-45 cells,a slight suppression of colony formation above that seen with CPT-11 alone
same,"colony formation, CBDC compound alone",MK-45 cells,a slight suppression of colony formation
"O=C(Oc1ccc(C(F)(F)F)cc1)c1ccc(Br)cc1 [CBDC413, 4-Bromo-benzoic acid 4-trifluoromethyl-phenyl ester]","colony formation, CBDC compound alone",MK-45 cells,did not have an appreciable effect on colony formation
"Cc1ccc(OC(=O)c2ccc(Br)cc2)cn1 [CBDC418, 4-Bromo-benzoic acid 6-methyl-pyridin-3-yl ester]","colony formation, CBDC compound alone",MK-45 cells,did not have an appreciable effect on colony formation
"CCc1c2c(nc3ccc(OC(=O)N4CCC(N5CCCCC5)CC4)cc13)-c1cc3c(c(=O)n1C2)COC(=O)[C@]3(O)CC [CPT-11, Irinotecan, reference compound]","tumor growth, CPT-11 alone",[3]; 20 mg/kg once a week,reduced tumor growth
same,"colony formation, CPT-11 alone","MK-45 cells; 10 μg/ml, 3 hours",significant suppression of colony formation
"COc1cccc2c1C(=O)c1c(O)c3c(c(O)c1C2=O)C[C@@](O)(C(=O)CO)C[C@@H]3O[C@H]1C[C@H](N)[C@H](O)[C@H](C)O1 [adriamycine, adriamycin]",cytotoxic effect (% subG1) of anti-cancer agent alone,HCT116 cells,had a cytotoxic effect on HCT116 cells
"CC[C@@]1(O)C(=O)OCc2c1cc1n(c2=O)Cc2cc3ccccc3nc2-1 [canptothecine, camptothecin]",cytotoxic effect (% subG1) of anti-cancer agent alone,"HCT116 cells; HCT116 cells, without CBDC004",had a cytotoxic effect on HCT116 cells
"COc1cc2c(c(OC)c1OC)-c1ccc(OC)c(=O)cc1[C@@H](NC(C)=O)CC2 [colchicine, reference compound]",accumulation of cells in M phase by colchicine alone,Activated normal T cells [4],caused an accumulation of cells in M phase
same,accumulation of cells in G2/M phase by agent alone,Jurkat cells [5]; colchicine 5 ug/ml,induced an accumulation of cells in G2/M phase cells
bleomycin [reference compound],accumulation of cells in G2/M phase by agent alone,"Jurkat cells [1]; Jurkat cells, bleomycin 40 μg/ml, 24 hrs",induced an accumulation of cells in cell cycle G2/M phase
same,accumulation of cells at G2 phase by bleomycin alone,"Jurkat cells [1]; leukemic T cells (Jurkat cells), FIG. 10b",caused accumulation of a major population of cells at G2 phase
same,accumulation of cells at G2 phase by bleomycin alone,Activated normal T cells [6]; FIG. 10a,caused accumulation of a minor population of cells at G2 phase

# — US7629364B2, “Compounds that abrogate DNA-damage-induced cell cycle G2 checkpoint and/or augment anti-cancer activity of DNA-damaging treatments” (Canbas Co., Ltd., priority 2002, dated 2009)
